Assay results published in patent US20200354327A1, “COMPOUND HAVING STAT3 INHIBITORY ACTIVITY AND USE THEREOF” (CYTUS H&B CO., LTD., priority 2017, published 2020).

Biological target: STAT3 (Homo sapiens, UniProt P40763)
Experiment: Western blot of the 46 Table 1 compounds in Hodgkin lymphoma cell lines L540 and HDLM-2
Assay type: cell-based
Design: endogenous in cells; host or cells: L540, HDLM-2, U87-MG, MDA-MB-231, further human glioblastoma and breast cancer lines
Conditions: for STAT3 inhibitory efficacy, first screening: L540 and HDLM-2
Protocol: The human cancer cell lines used in the experiment were U87-MG (human malignant glioblastoma) and MDA-MB-231 (human malignant breast cancer) cell lines, and various kinds of human-derived blood and solid cancer cells including these human cancer cell lines were cultured as previously described (Jung J E, et al. FASEB J. 19, 1296-1298 (2005)). The human Hodgkin lymphoma cancer cell lines L540 and HLDM-2 used in the experiment were obtained from the German Collection of Microorganism and Cell Cultures (DSMZ, Germany) and cultured using RPMI 1640 medium containing 20% FBS in a 5% CO2 incubator at a temperature of 37° C.
Western blot analysis was performed (Jung J E, et al. FASEB J. 19, 1296-1298 (2005)). The cells were washed two times with PBS and suspended in the lysate (50 mM Tris-HCl, pH 7.4, 350 mM NaCl, 1% Triton X-100, 0.5% Nonidet P-40, 10% glycerol, 0.1% SDS, 1 mM EDTA, 1 mM EGTA, 1 mM Na3VO4, 1 mM PMSF, protease and phosphorylation inhibitor) and the cell membrane and nuclear membrane were crushed to lyse the cells. The insoluble protein fraction was removed by centrifugation, and the supernatant was mixed with SDS electrophoresis buffer and electrophoresis (SDS-PAGE) was performed to detect the protein with the desired antibody and to confirm the protein expression level.

Sequence of STAT3 (P40763 whole entry): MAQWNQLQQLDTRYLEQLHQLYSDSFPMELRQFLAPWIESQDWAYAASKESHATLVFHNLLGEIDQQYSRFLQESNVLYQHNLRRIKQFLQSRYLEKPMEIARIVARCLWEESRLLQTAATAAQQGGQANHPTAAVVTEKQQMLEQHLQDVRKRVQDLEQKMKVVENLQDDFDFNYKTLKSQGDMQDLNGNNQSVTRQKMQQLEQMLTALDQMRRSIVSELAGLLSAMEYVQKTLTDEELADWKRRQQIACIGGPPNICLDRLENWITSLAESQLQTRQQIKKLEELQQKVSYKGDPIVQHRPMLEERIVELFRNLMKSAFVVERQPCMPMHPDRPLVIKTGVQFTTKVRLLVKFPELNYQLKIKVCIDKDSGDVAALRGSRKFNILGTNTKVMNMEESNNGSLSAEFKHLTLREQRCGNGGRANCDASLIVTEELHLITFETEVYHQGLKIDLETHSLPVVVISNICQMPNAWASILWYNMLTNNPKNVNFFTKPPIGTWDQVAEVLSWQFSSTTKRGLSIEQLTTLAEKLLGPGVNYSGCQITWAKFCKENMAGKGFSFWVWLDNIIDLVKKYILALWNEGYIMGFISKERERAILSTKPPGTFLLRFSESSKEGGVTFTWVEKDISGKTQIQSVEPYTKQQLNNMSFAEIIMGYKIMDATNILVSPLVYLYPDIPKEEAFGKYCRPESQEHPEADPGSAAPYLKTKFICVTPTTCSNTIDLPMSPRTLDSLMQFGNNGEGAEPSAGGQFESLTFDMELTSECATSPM

Structure (SMILES) | STAT3 inhibitory efficacy, first screening | STAT3 inhibitory efficacy, secondary screening (L540 and HDLM-2, 50 μM) | phosphorylation of STAT tyrosine 705 (L540 and HDLM-2, various concentrations)
Cl.Cl.NCCc1nc2ccccc2c(=O)[nH]1.O [compound 1, 2-(2-aminoethyl)-4(3H)-quinazolinone dihydrochloride hydrate] | judged to exert superior STAT3 inhibitory efficacy | – | –
O=S(=O)(NCCc1nc2ccccc2[nH]1)c1ccccc1 [compound 4, N-[2-(lH-benzimidazol-2-yl)ethyl]benzenesulfonamide] | judged to exert superior STAT3 inhibitory efficacy | – | –
O=C1NCSC1=Cc1ccccc1O [compound 5, 5-(2-hydroxybenzylidene)-l,3-thiazolidin-4-one] | judged to exert superior STAT3 inhibitory efficacy | – | –
O=S(=O)(NCc1nc2ccccc2[nH]1)c1ccccc1 [compound 6, N-(1H-benzimidazol-2-ylmethyl)benzenesulfonamide] | judged to exert superior STAT3 inhibitory efficacy | – | –
O=C(O)C1Cc2c([nH]c3ccccc23)C(c2ccc(O)cc2)N1 (stereo not drawn) [compound 8, l-(4-hydroxyphenyl)-2,3,4,9-tetrahydro-lH-beta-carboline-3-carboxylic acid] | judged to exert superior STAT3 inhibitory efficacy | – | –
O=C(Nc1nc(O)nc(C=Cc2ccccc2)n1)NS(=O)(=O)c1ccccc1Cl [compound 9, 2-chloro-N-({[4-hydroxy-6-(2-phenylvinyl)-l,3,5-triazin-2-yl]amino]carbonyl)benzenesulfonamide] | judged to exert superior STAT3 inhibitory efficacy | – | –
O=C(O)c1cccc(NS(=O)(=O)c2cccc(C(F)(F)F)c2)c1 [compound 11, 3-({[3-(trifluoromethyl)phenyl]sulfonyl}amino)benzoic acid] | judged to exert superior STAT3 inhibitory efficacy | – | –
O=S(=O)(NCc1nc2ccccc2[nH]1)c1ccc(Cl)cc1 [compound 14, N-(1H-benzimidazol-2-ylmethyl)-4-chlorobenzenesulfonamide] | judged to exert superior STAT3 inhibitory efficacy | – | –
CC1CN(Cc2nc3c([nH]2)c(=O)[nH]c(=O)n3C)CC(C)O1 (stereo not shown) [compound 16, 8-[(2,6-dimethyl-4-morpholinyl)methyl]-3-methyl-3,7-dihydro-lH-purine-2,6-dione] | judged to exert superior STAT3 inhibitory efficacy | – | –
CC(CNCc1nc2ccccc2[nH]1)c1ccccc1 (stereo not shown) [compound 18, (1H-benzimidazol-2-ylmethyl)(2-phenylpropyl)amine] | judged to exert superior STAT3 inhibitory efficacy | – | –
CCS(=O)(=O)Nc1cccc(C2=NN(S(C)(=O)=O)C(c3cccc(F)c3)C2)c1 (stereo not drawn) [compound 19, N-{3-[5-(3-fluorophenyl)-l-(methylsulfonyl)-4,5-dihydro-lH-pyrazol-3-yl]phenyl}ethanesulfonamide] | judged to exert superior STAT3 inhibitory efficacy | – | –
O=S(=O)(NCc1nc2ccccc2[nH]1)c1ccc(Cl)c(Cl)c1 [compound 20, N-(lH-benzimidazol-2-ylmethyl)-3,4-dichlorobenzenesulfonamide] | judged to exert superior STAT3 inhibitory efficacy | – | –
O=C(Nc1ccc(C(=O)N2CCNC2=O)cc1)c1cccs1 [compound 21, N-{4-[(2-oxo-l-imidazolidinyl)carbonyl]phenyl}-2-thiophenecarboxamide] | judged to exert superior STAT3 inhibitory efficacy | – | –
O=C(Nc1ccc(C(=O)N2CCNC2=O)cc1)c1ccccc1 [compound 22, N-{4-[(2-oxo-l-imidazolidinyl)carbonyl]phenyl}benzamide] | judged to exert superior STAT3 inhibitory efficacy | – | –
O=C(COc1ccc(Cl)cc1S(=O)(=O)NC1CC1)N1CCOCC1 [compound 23, 5-chloro-N-cyclopropyl-2-[2-(4-morpholinyl)-2-oxoethoxy]benzenesulfonamide] | judged to exert superior STAT3 inhibitory efficacy | – | –
NC(=O)c1cc(S(=O)(=O)Nc2ccc(O)cc2)cs1 [compound 24, 4-{[(4-hydroxyphenyl)amino]sulfonyl}-2-thiophenecarboxamide] | judged to exert superior STAT3 inhibitory efficacy | – | –

Structure (SMILES) | STAT3 inhibitory efficacy, first screening | STAT3 inhibitory efficacy, secondary screening (L540 and HDLM-2, 50 μM) | phosphorylation of STAT tyrosine 705 (L540 and HDLM-2, various concentrations)
O=C1CN(C(=O)C=Cc2ccccc2)CCN1 [compound 27, 4-cinnamoyl-2-piperazinone] | judged to exert superior STAT3 inhibitory efficacy | – | –
Cc1ccccc1NC(=O)c1cccc(NS(C)(=O)=O)c1 [compound 28, N-(2-methylphenyl)-3-((methylsulfonyl)amino]benzamide] | judged to exert superior STAT3 inhibitory efficacy | – | –
O=C(Nc1ccc(F)cc1)Nc1cccc(C(=O)NCc2ccccc2)c1 [compound 29, N-benzyl-3-({[(4-fluorophenyl)amino]carbonyl}amino)benzamide] | judged to exert superior STAT3 inhibitory efficacy | – | –
CC(C)(C)NC(=O)c1cccc(NC(=O)Nc2ccccc2)c1 [compound 30, 3-[(anilinocarbonyl)amino]-N-(tert-butyl)benzamide] | judged to exert superior STAT3 inhibitory efficacy | – | –
Cc1ccc(S(=O)(=O)NCCc2nc3ccccc3[nH]2)cc1 [compound 31, N-[2-(1H-benzimidazol-2-yl)ethyl]-4-methylbenzenesulfonamide] | judged to exert superior STAT3 inhibitory efficacy | – | –
Cc1ccc(S(=O)(=O)NCc2nc3ccccc3[nH]2)cc1 [compound 32, N-(1H-benzimidazol-2-ylmethyl)-4-methylbenzenesulfonamide] | judged to exert superior STAT3 inhibitory efficacy | – | –
CS(=O)(=O)Nc1cccc(C(=O)NCc2ccncc2)c1 [compound 33, 3-[(methylsulfonyl)amino]-N-(4-pyridinylmethyl)benzamide] | judged to exert superior STAT3 inhibitory efficacy | – | –
Brc1cc2c(cc1CSc1nc3cccnc3[nH]1)OCO2 [compound 34, 2-{[(6-bromo-l,3-benzodioxol-5-yl)methyl]thio}-3H-imidazo[4,5-b]pyridine] | judged to exert superior STAT3 inhibitory efficacy | – | –
O=C(O)[C@@H]1CCCN1S(=O)(=O)c1ccc2[nH]c(=O)c(=O)[nH]c2c1 [compound 35, l-[(2,3-dioxo-l,2,3,4-tetrahydro-6-quinoxalinyl)sulfonyl]proline] | judged to exert superior STAT3 inhibitory efficacy | – | –
CCc1ccc(OC)c(S(=O)(=O)Nc2cccc(O)c2)c1 [compound 36, 5-ethyl-N-(3-hydroxyphenyl)-2-methoxybenzenesulfonamide] | judged to exert superior STAT3 inhibitory efficacy | – | –
OCCCNc1nc(Nc2cccc(O)c2)nc2ccccc12 [compound 37, 3-({4-[(3-hydroxypropyl)amino]-2-quinazolinyl}amino)phenol] | judged to exert superior STAT3 inhibitory efficacy | judged to exert superior STAT3 inhibitory efficacy | significantly inhibited the phosphorylation of STATdml tyrosine 705 in a concentration-dependent manner
O=C(Nc1ccc(Cc2ccc(NC(=O)C(c3ccccc3)c3ccccc3)c(O)c2)cc1O)C(c1ccccc1)c1ccccc1 [compound 38, N,N′-[methylenebis(2-hydroxy-4,1-phenylene)]bis(2,2-diphenylacetamide)] | judged to exert superior STAT3 inhibitory efficacy | – | –
COc1ccccc1C(=O)Nc1ccc(C(=O)N2CCNC2=O)cc1 [compound 41, 2-methoxy-N-{4-[(2-oxo-l-imidazolidinyl)carbonyl]phenyl}benzamide] | judged to exert superior STAT3 inhibitory efficacy | – | –
Cc1[nH]c2ccc(-c3n[nH]c(=S)n3C)cc2c1C [compound 42, 5-(2,3-dimethyl-lH-indol-5-yl)-4-methyl-2,4-dihydro-3H-l,2,4-triazole-3-thione] | judged to exert superior STAT3 inhibitory efficacy | – | –
O=C(Nc1cccnc1)c1cccc(NS(=O)(=O)c2ccccc2)c1 [compound 43, 3-[(phenylsulfonyl)amino]-N-3-pyridinylbenzamide] | judged to exert superior STAT3 inhibitory efficacy | – | –
CS(=O)(=O)Nc1cccc(C(=O)Nc2ccccc2C(=O)NCc2cccnc2)c1 [compound 44, 2-({3-[(methylsulfonyl)amino]benzoyl]amino)-N-(3-pyridinylmethyl)benzamide] | judged to exert superior STAT3 inhibitory efficacy | – | –
